Measurements reported in PubChem BioAssay (NCI).
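Cultured in 96-well plates, cells were exposed to test compound for 48 hours across five concentrations. TGI: total growth inhibition.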

Assays:
Test in all cases: growth of human tumour cells (NCI), 48 h
[1] = test system: T-47D breast
[2] = test system: UACC-62 melanoma
[3] = test system: HCT-15 colon
[4] = test system: HOP-92 NSCLC
[5] = test system: SNB-19 CNS
[6] = test system: IGROV1 ovarian
[7] = test system: MDA-MB-435
[8] = test system: SW-620 colon
[9] = test system: SN12C renal
[10] = test system: COLO 205 colon
[11] = test system: SF-295 CNS
[12] = test system: 786-0 renal
[13] = test system: LOX IMVI melanoma
[14] = test system: TK-10 renal
[15] = test system: DU-145 prostate
[16] = test system: NCI-H460 lung
[17] = test system: SK-MEL-5 melanoma
[18] = test system: OVCAR-5 ovarian
[19] = test system: OVCAR-8 ovarian
[20] = test system: UO-31 renal
[21] = test system: NCI-H226 lung
[22] = test system: ACHN renal
[23] = test system: MDA-MB-231 breast
[24] = test system: NCI-H522 lung
[25] = test system: HCC-2998 colon
[26] = test system: K-562 leukemia
[27] = test system: HS 578T breast
[28] = test system: HOP-62 NSCLC
[29] = test system: KM12 colon
[30] = test system: SF-539 CNS
[31] = test system: MOLT-4 leukemia
[32] = test system: HCT-116 colon
[33] = test system: SK-MEL-28 melanoma
[34] = test system: OVCAR-3 ovarian
[35] = test system: M14 melanoma
[36] = test system: NCI/ADR-RES ovarian
[37] = test system: MDA-N
[38] = test system: A549 NSCLC
[39] = test system: SR leukemia
[40] = test system: PC-3 prostate
[41] = test system: CCRF-CEM leukemia
[42] = test system: HL-60(TB) leukemia
[43] = test system: OVCAR-4 ovarian
[44] = test system: CAKI-1 renal
[45] = test system: HT29 colon
[46] = test system: NCI-H23 lung
[47] = test system: RXF 393 renal
[48] = test system: A498 renal
[49] = test system: EKVX NSCLC
[50] = test system: RPMI-8226 leukemia
[51] = test system: SF-268 CNS
[52] = test system: MALME-3M melanoma
[53] = test system: SK-OV-3 ovarian

## CCCCOC(=O)NC(Nc1ccc(S(=O)(=O)Nc2ncccn2)cc1)(C(F)(F)F)C(F)(F)F
[1]
  TGI: > 100 µM
[2]
  TGI: > 100 µM
[3]
  TGI: > 100 µM
[4]
  TGI: > 100 µM
[5]
  TGI: > 100 µM
[6]
  TGI: > 100 µM
[7]
  TGI: > 100 µM
[8]
  TGI: > 100 µM
[9]
  TGI: > 100 µM
[10]
  TGI: > 100 µM
[11]
  TGI: > 100 µM
[12]
  TGI: > 100 µM
[13]
  TGI: > 100 µM
[14]
  TGI: > 100 µM
[15]
  TGI: > 100 µM
[16]
  TGI: > 100 µM
[17]
  TGI: > 100 µM
[18]
  TGI: > 100 µM
[19]
  TGI: > 100 µM
[20]
  TGI: 43.6 µM
[21]
  TGI: > 100 µM
[22]
  TGI: > 100 µM
[23]
  TGI: > 100 µM
[24]
  TGI: > 100 µM
[25]
  TGI: 65.9 µM
[26]
  TGI: > 100 µM
[27]
  TGI: > 100 µM
[28]
  TGI: > 100 µM
[29]
  TGI: > 100 µM
[30]
  TGI: > 100 µM
[31]
  TGI: > 100 µM
[32]
  TGI: > 100 µM
[33]
  TGI: > 100 µM
[34]
  TGI: > 100 µM
[35]
  TGI: > 100 µM
[36]
  TGI: > 100 µM
[37]
  TGI: > 100 µM
[38]
  TGI: > 100 µM
[39]
  TGI: > 100 µM
[40]
  TGI: > 100 µM
[41]
  TGI: > 100 µM
[42]
  TGI: > 100 µM
[43]
  TGI: > 100 µM
[44]
  TGI: > 100 µM
[45]
  TGI: > 100 µM
[46]
  TGI: > 100 µM
[47]
  TGI: > 100 µM
[48]
  TGI: > 100 µM
[49]
  TGI: > 100 µM
[50]
  TGI: > 100 µM
[51]
  TGI: > 100 µM
[52]
  TGI: > 100 µM
[53]
  TGI: > 100 µM
